Measured values taken from PubChem BioAssay AID248 (DTP/NCI, 2004).
Several values for one entry are separate records, joined by “and”; a condition that tells them apart may be missing. Equal values may be shown once. Inconclusive results and toxic doses are left out. Rule as the data show it: active = T/C of 150% or more; inactive = T/C below 125%.

Tested on: L1210 leukemia ip in BDF1 mice, survival T/C
Test: NCI In Vivo Anticancer Drug Screen. Data for tumor model L1210 Leukemia (intraperitoneal) in B6D2F1 (BDF1) mice
Details: endpoint: mean survival time, higher = longer survival
Procedure, shortened: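 Transplantable tumor model; survival measured in treated vs vehicle control mice. Value = treated/control.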

[1] = dose: 100.0 mg/kg/injection, schedule: Q01DX001 (ip), vehicle: saline
[2] = dose: 100.0 mg/kg/injection, schedule: Q01DX009 (ip), vehicle: saline
[3] = dose: 200.0 mg/kg/injection, schedule: Q01DX009 (ip), vehicle: saline
[4] = dose: 400.0 mg/kg/injection, schedule: Q01DX009 (ip), vehicle: saline
[5] = dose: 100.0 mg/kg/injection, schedule: Q04DX003 (ip), vehicle: saline with Tween-80
[6] = dose: 200.0 mg/kg/injection, schedule: Q04DX003 (ip), vehicle: saline with Tween-80
[7] = dose: 400.0 mg/kg/injection, schedule: Q04DX003 (ip), vehicle: saline with Tween-80
[8] = dose: 50.0 mg/kg/injection, schedule: Q01DX009 (ip), vehicle: saline

Measured: T/C

COc1cc2c3c(c1)-c1c(ccc(OC)c1O)CC3N(C)CC2 (stereo unspecified)
inactive: dose: 25.0 mg/kg/injection, schedule: Q04DX003 (ip), vehicle: DMSO 93 % of control | dose: 50.0 mg/kg/injection, schedule: Q04DX003 (ip), vehicle: DMSO 91 % of control | dose: 100.0 mg/kg/injection, schedule: Q04DX003 (ip), vehicle: DMSO 91 % of control

CCn1c2ccccc2c2cc3c(cc21)C(C)=NCC3
inactive: dose: 25.0 mg/kg/injection, schedule: Q04DX002 (ip), vehicle: Klucel (hydroxypropylcellulose) (HPC) 112 % of control | dose: 50.0 mg/kg/injection, schedule: Q04DX002 (ip), vehicle: Klucel (hydroxypropylcellulose) (HPC) 102 % of control | dose: 100.0 mg/kg/injection, schedule: Q04DX002 (ip), vehicle: Klucel (hydroxypropylcellulose) (HPC) 102 % of control

CC(=O)OCCC/C(=C\c1ccccc1)[N+](=O)[O-]
inactive: [1] 107 % of control

COc1cc(N=Nc2ccc([N+](=O)[O-])cc2)c(OC)cc1N
inactive: dose: 5.0 mg/kg/injection, schedule: Q01DX001 (ip), vehicle: other 98 % of control | dose: 10.0 mg/kg/injection, schedule: Q01DX001 (ip), vehicle: other 101 % of control | dose: 20.0 mg/kg/injection, schedule: Q01DX001 (ip), vehicle: other 98 % of control | dose: 40.0 mg/kg/injection, schedule: Q01DX001 (ip), vehicle: other 101 % of control

CCOC(=O)C(Br)(C(=O)OCC)C(C)C
inactive: [2] 101 % of control | [3] 95 % of control | [4] 100 % of control

O=C(O)C1CO1 (stereo unspecified)
inactive: dose: 100.0 mg/kg/injection, schedule: Q01DX001 (ip), vehicle: acetone 102 % of control | dose: 200.0 mg/kg/injection, schedule: Q01DX001 (ip), vehicle: acetone 98 % of control | dose: 400.0 mg/kg/injection, schedule: Q01DX001 (ip), vehicle: acetone 101 % of control

CCCCCCCC/C=C\CCCCCCCC(=O)OCCSCCOC(C)=O
inactive: dose: 100.0 mg/kg/injection, schedule: Q01DX009 (ip), vehicle: saline with Tween-80 97 % of control | [5] 89 % of control | dose: 200.0 mg/kg/injection, schedule: Q01DX009 (ip), vehicle: saline with Tween-80 102 % of control | [6] 92 % of control | dose: 400.0 mg/kg/injection, schedule: Q01DX009 (ip), vehicle: saline with Tween-80 102 % of control | [7] 94 % of control

COC(=O)C(CSC(=O)c1ccccc1)NC(=O)c1ccccc1 (stereo unspecified)
inactive: dose: 25.0 mg/kg/injection, schedule: Q04DX003 (ip), vehicle: Klucel (hydroxypropylcellulose) (HPC) 100 % of control | dose: 50.0 mg/kg/injection, schedule: Q04DX003 (ip), vehicle: Klucel (hydroxypropylcellulose) (HPC) 110 % of control | dose: 100.0 mg/kg/injection, schedule: Q01DX001 (ip), vehicle: Klucel (hydroxypropylcellulose) (HPC) 97 % of control | dose: 100.0 mg/kg/injection, schedule: Q04DX003 (ip), vehicle: Klucel (hydroxypropylcellulose) (HPC) 100 % of control | dose: 200.0 mg/kg/injection, schedule: Q01DX001 (ip), vehicle: Klucel (hydroxypropylcellulose) (HPC) 100 % of control | dose: 400.0 mg/kg/injection, schedule: Q01DX001 (ip), vehicle: Klucel (hydroxypropylcellulose) (HPC) 101 % of control

CC1(C)NC(C(=O)O)C(C)(C)S1 (stereo unspecified)
inactive: [1] 100 % of control | dose: 200.0 mg/kg/injection, schedule: Q01DX001 (ip), vehicle: saline 89 % of control | dose: 400.0 mg/kg/injection, schedule: Q01DX001 (ip), vehicle: saline 95 % of control

CCCCNC(=O)c1ncccc1C(=O)O
inactive: dose: 100.0 mg/kg/injection, schedule: Q01DX001 (ip), vehicle: carboxymethylcellulose (CMC) 111 % of control | dose: 100.0 mg/kg/injection, schedule: Q04DX003 (ip), vehicle: carboxymethylcellulose (CMC) 102 % of control | dose: 200.0 mg/kg/injection, schedule: Q01DX001 (ip), vehicle: carboxymethylcellulose (CMC) 103 % of control | dose: 200.0 mg/kg/injection, schedule: Q04DX003 (ip), vehicle: carboxymethylcellulose (CMC) 95 % of control | dose: 400.0 mg/kg/injection, schedule: Q01DX001 (ip), vehicle: carboxymethylcellulose (CMC) 97 % of control

CC(Oc1ccccc1)C(=O)NC(=S)Nc1cc(Cl)ccc1Cl (stereo unspecified)
inactive: dose: 100.0 mg/kg/injection, schedule: Q01DX001 (ip), vehicle: other 93 % of control | dose: 100.0 mg/kg/injection, schedule: Q01DX009 (ip), vehicle: other 94 % of control and 89 % of control | dose: 100.0 mg/kg/injection, schedule: Q04DX002 (ip), vehicle: other 119 % of control and 90 % of control | dose: 200.0 mg/kg/injection, schedule: Q01DX001 (ip), vehicle: other 88 % of control | dose: 200.0 mg/kg/injection, schedule: Q01DX009 (ip), vehicle: other 96 % of control and 89 % of control | dose: 200.0 mg/kg/injection, schedule: Q04DX002 (ip), vehicle: other 94 % of control and 102 % of control | dose: 400.0 mg/kg/injection, schedule: Q01DX009 (ip), vehicle: other 88 % of control | dose: 400.0 mg/kg/injection, schedule: Q04DX002 (ip), vehicle: other 102 % of control

O=S1(=O)CC(S(=O)(=O)O)C(S(=O)(=O)O)C1 (stereo unspecified)
inactive: [8] 110 % of control | [2] 103 % of control | [3] 99 % of control | [4] 93 % of control

CC(c1ccc(-c2ccccc2)cc1)C(Cl)c1ccccc1 (stereo unspecified)
inactive: dose: 100.0 mg/kg/injection, schedule: Q01DX001 (ip), vehicle: saline with Tween-80 91 % of control | dose: 200.0 mg/kg/injection, schedule: Q01DX001 (ip), vehicle: saline with Tween-80 91 % of control | dose: 400.0 mg/kg/injection, schedule: Q01DX001 (ip), vehicle: saline with Tween-80 93 % of control

CCCCCCCCCCSC#N
inactive: dose: 5.0 mg/kg/injection, schedule: Q01DX001 (ip), vehicle: saline 103 % of control | dose: 10.0 mg/kg/injection, schedule: Q01DX001 (ip), vehicle: saline 97 % of control | dose: 20.0 mg/kg/injection, schedule: Q01DX001 (ip), vehicle: saline 105 % of control | dose: 20.0 mg/kg/injection, schedule: Q01DX009 (ip), vehicle: saline 111 % of control | dose: 20.0 mg/kg/injection, schedule: Q04DX003 (ip), vehicle: saline 100 % of control | dose: 40.0 mg/kg/injection, schedule: Q01DX001 (ip), vehicle: saline 97 % of control | dose: 40.0 mg/kg/injection, schedule: Q01DX009 (ip), vehicle: saline 106 % of control | dose: 40.0 mg/kg/injection, schedule: Q04DX003 (ip), vehicle: saline 100 % of control | dose: 80.0 mg/kg/injection, schedule: Q01DX009 (ip), vehicle: saline 100 % of control | dose: 80.0 mg/kg/injection, schedule: Q04DX003 (ip), vehicle: saline 101 % of control

O=C(O)c1ccncc1C(=O)c1csc2ccccc12
inactive: dose: 25.0 mg/kg/injection, schedule: Q01DX009 (ip), vehicle: saline 108 % of control | [8] 102 % of control | dose: 50.0 mg/kg/injection, schedule: Q04DX003 (ip), vehicle: acetone 99 % of control | [2] 94 % of control | dose: 100.0 mg/kg/injection, schedule: Q04DX003 (ip), vehicle: acetone 99 % of control

CCOC(=O)CN1CC(=O)OC(C(Cl)(Cl)Cl)C1 (stereo unspecified)
inactive: [5] 98 % of control | [6] 90 % of control | [7] 93 % of control

O=C(O)c1c(Br)c(Br)c(Br)c(Br)c1C(=O)Nc1cccc2c(O)cccc12
inactive: dose: 100.0 mg/kg/injection, schedule: Q01DX009 (ip), vehicle: Klucel (hydroxypropylcellulose) (HPC) 110 % of control | dose: 200.0 mg/kg/injection, schedule: Q01DX009 (ip), vehicle: Klucel (hydroxypropylcellulose) (HPC) 107 % of control | dose: 400.0 mg/kg/injection, schedule: Q01DX009 (ip), vehicle: Klucel (hydroxypropylcellulose) (HPC) 96 % of control

CC(C)C(C(=O)O)(c1ccccc1)c1ccccc1
inactive: dose: 100.0 mg/kg/injection, schedule: Q04DX003 (ip), vehicle: saline 101 % of control | dose: 200.0 mg/kg/injection, schedule: Q04DX003 (ip), vehicle: saline 103 % of control | dose: 400.0 mg/kg/injection, schedule: Q04DX003 (ip), vehicle: saline 97 % of control

CC(=O)OC(OC(C)=O)c1ccccn1
inactive: dose: 75.0 mg/kg/injection, schedule: Q01DX001 (ip), vehicle: saline 94 % of control | dose: 150.0 mg/kg/injection, schedule: Q01DX001 (ip), vehicle: saline 96 % of control | dose: 300.0 mg/kg/injection, schedule: Q01DX001 (ip), vehicle: saline 93 % of control

CN(c1ccccc1)S(=O)(=O)c1ccc(NC(=O)CBr)cc1
inactive: dose: 37.5 mg/kg/injection, schedule: Q01DX001 (ip), vehicle: Klucel (hydroxypropylcellulose) (HPC) 86 % of control | dose: 75.0 mg/kg/injection, schedule: Q01DX001 (ip), vehicle: Klucel (hydroxypropylcellulose) (HPC) 93 % of control
